Measured values from patent US4038480A, “6-Aminocarbonyl purine 3',5'-cyclic nucleotides” (ICN Pharmaceuticals, Inc., priority 1973, dated 1977).
Where a name gives a salt, the structure may show the parent alone.

Key:
[1] = target: rabbit lung cAMP phosphodiesterase; assay: Inhibition of rabbit lung cAMP phosphodiesterase; format: biochemical; details: read-out: I50, Rabbit Lung
Excerpt: (§1) The results appear in Table I below.

[2] = target: beef heart cAMP phosphodiesterase; assay: Inhibition of beef heart cAMP phosphodiesterase; format: biochemical; details: read-out: I50, Beef Heart
Excerpt: as §1

[3] = tested on: rabbit kidney high Km C-AMP phosphodiesterase; assay: Vulnerability to degradation (hydrolysis) by high Km C-AMP phosphodiesterase; format: biochemical; details: for resistance to hydrolysis compared with C-AMP: rabbit kidney high Km phosphodiesterase
Excerpt: In fact, hydrolysis to any appreciable extent could be detected only in the case of compound 8 (hydrolysis at a rate only 8% that of C-AMP).

lipolysis = assay: Activation of lipolysis
steroidogenisis = assay: Activation of steroidogenesis
[4] = target: bovine brain C-AMP dependent kinase; assay: Activation of C-AMP dependent protein kinase; format: biochemical; details: for kinase activation compared with C-AMP: bovine brain kinase, comparison in words
Method: Preferred carbamoyl compounds prepared as in the preceding examples were assayed for ability to activate protein kinase by the procedure described in K. Muneyama et al, Biochem. 10, 2390 (1971), using bovine brain C-AMP dependent kinase purified according to Kuo & Greengard, in Proc. Nat. Acad. Sci. U.S.A. 64, 1349 (1969). […] K. Muneyama et al, supra.

[5] = Lowering of blood pressure; details: in vivo
adenyl cyclase = assay: Inhibition of adenyl cyclase; format: biochemical
[6] = Inotropic action (cardiac output, heart rate); format: in vivo; details: inotropic agent
[7] = tested on: bovine brain C-AMP dependent kinase; details: relative to C-AMP; K. Muneyama et al; cited from earlier work

| Compound | IC50 [1] [µM] | IC50 [2] [µM] | resistance to hydrolysis compared with C-AMP [3] | activation of lipolysis, concentration compared with C-AMP (lipolysis) | activation of steroidogenesis, concentration compared with C-AMP (steroidogenisis) | lowering of blood pressure [5] | also measured |
| --- | --- | --- | --- | --- | --- | --- | --- |
| Cn1c(=O)c2[nH]cnc2n(C)c1=O [Theophylline, reference compound] | 230 | 130 |  |  |  |  |  |
| O=C(Nc1ccccc1)Nc1ncnc2c1nc(SCc1ccccc1)n2[C@@H]1O[C@@H]2COP(=O)(O)O[C@H]2[C@H]1OC(=O)Nc1ccccc1 [Compound 12, 8-Benzylthio-N^6,2'-O-bis-(N-phenylcarbamoyl) adenosine 3',5'-cyclic phosphate sodium salt] | 10 | 22 | more resistant to hydrolysis than C-AMP |  |  |  |  |
| CNC(=O)Nc1ncnc2c1nc(Br)n2[C@@H]1O[C@@H]2COP(=O)(O)O[C@H]2[C@H]1OC(=O)NC [Compound 11, 8-Bromo-N^6,2'-O-bis-(N-methylcarbamoyl)adenosine 3',5'-cyclic phosphate] | 130 | 260 | more resistant to hydrolysis than C-AMP |  |  |  |  |
| CCCNC(=O)Nc1ncnc2c1ncn2[C@@H]1O[C@@H]2COP(=O)(O)O[C@H]2[C@H]1O [Compound 6, N^6-(N-Propylcarbamoyl) adenosine 3',5'-cyclic phosphate] |  |  | more resistant to hydrolysis than C-AMP | at concentrations substantially lower than C-AMP | at concentrations substantially lower than C-AMP | act to lower blood pressure | kinase activation compared with C-AMP [4]: superior in kinase activation to C-AMP itself |
| O=C(Nc1ccccc1)Nc1ncnc2c1ncn2[C@@H]1O[C@@H]2COP(=O)(O)O[C@H]2[C@H]1OC(=O)Nc1ccccc1 [Compound 4, N^6, 2'-O-bis-(N-Phenylcarbamoyl)adenosine 3',5'-cyclic phosphate sodium salt] | 190 | 93 | more resistant to hydrolysis than C-AMP |  |  |  |  |
| O=C(Nc1ccccc1)Nc1ncnc2c1ncn2[C@@H]1O[C@@H]2COP(=O)(O)O[C@H]2[C@H]1O [Compound 7, N^6-(N-Phenylcarbamoyl)adenosine 3',5'-cyclic phosphate] | 160 | 22 | more resistant to hydrolysis than C-AMP | at concentrations substantially lower than C-AMP | at concentrations substantially lower than C-AMP |  | inhibition of adenyl cyclase (adenyl cyclase): inhibit adenyl cyclase; effect on heart rate [6]: without deleteriously affecting heart rate; persistence of inotropic action [6]: persistent in action; increase of cardiac output compared with aminophylline ([6]; compared with aminophylline): the equal of aminophylline in increasing cardiac output; Ka' (Ka for C-AMP/Ka for test compound) ([4]; Ka from Lineweaver-Burk plot, relative to C-AMP): 4.9; kinase activation compared with C-AMP [4]: superior in kinase activation to C-AMP itself; activation of protein kinase relative to C-AMP (times better) ([4]; bovine brain protein kinase, relative to C-AMP): approximately five |
| CNC(=O)Nc1ncnc2c1ncn2[C@@H]1O[C@@H]2COP(=O)(O)O[C@H]2[C@H]1OC(=O)NC [Compound 2, N^6, 2'-O-bis-(N-Methylcarbamoyl)adenosine 3',5'-cyclic phosphate sodium salt] |  |  | more resistant to hydrolysis than C-AMP |  |  |  |  |
| CCOC(=O)Nc1ncnc2c1ncn2[C@@H]1O[C@@H]2COP(=O)(O)O[C@H]2[C@H]1O [Compound 8, N^6-(Ethoxycarbonyl)adenosine 3'5'-cyclic phosphate] | 210 | 130 | more resistant to hydrolysis than C-AMP | at concentrations substantially lower than C-AMP | at concentrations substantially lower than C-AMP | act to lower blood pressure | rate of hydrolysis relative to C-AMP ([3]; rate as % that of C-AMP): 8% |
| CCCNC(=O)Nc1ncnc2c1ncn2[C@@H]1O[C@@H]2COP(=O)(O)O[C@H]2[C@H]1OC(=O)NCCC [Compound 3, N^6, 2'-O-bis-(N-Propylcarbamoyl)adenosine 3', 5'-cyclic phosphate sodium salt] |  |  | more resistant to hydrolysis than C-AMP |  |  |  |  |
| O=C(Nc1ccccc1)Nc1ncnc2c1nc(SCc1ccccc1)n2[C@@H]1O[C@@H]2COP(=O)(O)O[C@H]2[C@H]1O [Compound 15, 8-Benzylthio-N^6-(N-phenylcarbamoyl)adenosine 3',5'-cyclic phosphate] | 21 | 14 | more resistant to hydrolysis than C-AMP |  |  | act to lower blood pressure | inhibition of adenyl cyclase (adenyl cyclase): inhibit adenyl cyclase; kinase activation compared with C-AMP [4]: superior in kinase activation to C-AMP itself |
| CNC(=O)Nc1ncnc2c1ncn2[C@@H]1O[C@@H]2COP(=O)(O)O[C@H]2[C@H]1O [Compound 5, N^6-(N-Methylcarbamoyl) adenosine 3',5'-cyclic phosphate] |  |  | more resistant to hydrolysis than C-AMP | at concentrations substantially lower than C-AMP | at concentrations substantially lower than C-AMP | act to lower blood pressure |  |
| CNC(=O)Nc1ncnc2c1nc(S)n2[C@@H]1O[C@@H]2COP(=O)(O)O[C@H]2[C@H]1OC(=O)NC [Compound 16, N^6,2'-O-bis-(N-Methylcarbamoyl)-8-mercaptoadenosine 3',5'-cyclic phosphate sodium salt] |  |  | more resistant to hydrolysis than C-AMP |  |  |  |  |
| Nc1ncnc2c1nc(S)n2[C@@H]1O[C@@H]2COP(=O)(O)O[C@H]2[C@H]1O [8-thio derivative of C-AMP] |  |  |  |  |  |  | Ka' (highest value previously reported in the literature) [7]: 3.77 |
